This is an account of results in US20100068204A1, “4-ARYLOXYQUINOLIN-2(1H)-ONES AS MTOR KINASE AND PI3 KINASE INHIBITORS, FOR USE AS ANTI-CANCER AGENTS” (Wyeth, priority 2008, published 2010).

Some results are limits rather than exact numbers.

For assay [1], the system named is MDA468 breast tumor cells. Put plainly: In vitro cell growth assay (MTS), MDA468. The following applies: three days after drug treatment. The assay is classed as cell-based, human. In short, it runs like this: (§1)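 Tumor cells plated ~3000/well; inhibitors in DMSO added one day later (final DMSO 0.25%). After three days of treatment, viable cell density read by MTS conversion, absorbance at 490 nm. Effect expressed relative to untreated control growth.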

In a further assay the target is human TOR (FLAG-TOR) (Homo sapiens, UniProt P42345). Put plainly: mTOR enzyme assay (DELFIA format, purified enzyme). It counts as biochemical. The note with it: 800 ng/ml FLAG-TOR, 100 μM ATP, 1.25 μM His6-S6K; read-out: mTOR Kinase IC50.
The target in another assay is PI3Kα (Homo sapiens, UniProt P42336). Put plainly: PI3Kα fluorescence polarization assay. The note with it: 20 μM PIP2, 25 μM ATP. The assay is classed as biochemical. In short, it runs like this:
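Kinase reaction in 20 mM HEPES pH 7.5, 2 mM MgCl2, 0.05% CHAPS with final 20 μM diC8-PIP2 and 25 μM ATP, 30-60 min at room temperature. Stopped with 10 nM TAMRA-labelled probe plus 2.5 uM GST-murine GRP; fluorescence polarization read after 90-110 minutes.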
On the technique in general: In fluorescence polarisation assays a small probe gives low polarisation when free and higher when bound to something large.

In assay [2] the test system is LNCap prostate tumor cells. The experiment in a line: In vitro cell growth assay (MTS), LNCap. The assay is classed as cell-based, human. The note with it: three days after drug treatment. In short, it runs like this:
as §1

Sequence of PI3Kα (P42336 whole entry, species assumed): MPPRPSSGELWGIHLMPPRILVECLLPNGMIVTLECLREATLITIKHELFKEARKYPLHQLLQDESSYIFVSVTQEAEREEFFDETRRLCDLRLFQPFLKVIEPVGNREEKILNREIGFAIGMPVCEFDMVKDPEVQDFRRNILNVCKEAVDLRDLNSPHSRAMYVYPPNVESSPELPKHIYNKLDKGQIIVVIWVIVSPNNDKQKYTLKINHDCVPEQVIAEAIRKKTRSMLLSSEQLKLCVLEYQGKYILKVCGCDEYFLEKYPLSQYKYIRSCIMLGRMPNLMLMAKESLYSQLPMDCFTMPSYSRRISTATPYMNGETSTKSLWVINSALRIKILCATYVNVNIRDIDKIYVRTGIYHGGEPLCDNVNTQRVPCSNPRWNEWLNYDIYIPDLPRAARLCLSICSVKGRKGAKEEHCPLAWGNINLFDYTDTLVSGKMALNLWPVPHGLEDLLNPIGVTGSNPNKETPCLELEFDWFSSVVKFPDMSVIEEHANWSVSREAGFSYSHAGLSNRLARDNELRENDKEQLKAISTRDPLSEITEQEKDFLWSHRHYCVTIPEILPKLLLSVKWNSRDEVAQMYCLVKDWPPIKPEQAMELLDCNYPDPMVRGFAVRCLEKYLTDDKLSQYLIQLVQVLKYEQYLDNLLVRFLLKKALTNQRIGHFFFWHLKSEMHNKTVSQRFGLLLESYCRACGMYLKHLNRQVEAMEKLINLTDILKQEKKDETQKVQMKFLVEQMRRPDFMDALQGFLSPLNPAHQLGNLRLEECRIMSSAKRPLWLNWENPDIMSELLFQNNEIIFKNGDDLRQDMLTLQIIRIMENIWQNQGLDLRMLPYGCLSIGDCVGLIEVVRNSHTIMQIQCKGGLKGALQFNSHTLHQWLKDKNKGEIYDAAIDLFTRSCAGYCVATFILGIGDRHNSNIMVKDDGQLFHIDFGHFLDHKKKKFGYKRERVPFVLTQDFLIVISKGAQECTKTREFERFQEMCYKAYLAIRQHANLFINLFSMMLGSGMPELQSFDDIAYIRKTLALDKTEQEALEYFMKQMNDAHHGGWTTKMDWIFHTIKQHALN
Sequence of PI3Kα (P27986 whole entry partner, species assumed): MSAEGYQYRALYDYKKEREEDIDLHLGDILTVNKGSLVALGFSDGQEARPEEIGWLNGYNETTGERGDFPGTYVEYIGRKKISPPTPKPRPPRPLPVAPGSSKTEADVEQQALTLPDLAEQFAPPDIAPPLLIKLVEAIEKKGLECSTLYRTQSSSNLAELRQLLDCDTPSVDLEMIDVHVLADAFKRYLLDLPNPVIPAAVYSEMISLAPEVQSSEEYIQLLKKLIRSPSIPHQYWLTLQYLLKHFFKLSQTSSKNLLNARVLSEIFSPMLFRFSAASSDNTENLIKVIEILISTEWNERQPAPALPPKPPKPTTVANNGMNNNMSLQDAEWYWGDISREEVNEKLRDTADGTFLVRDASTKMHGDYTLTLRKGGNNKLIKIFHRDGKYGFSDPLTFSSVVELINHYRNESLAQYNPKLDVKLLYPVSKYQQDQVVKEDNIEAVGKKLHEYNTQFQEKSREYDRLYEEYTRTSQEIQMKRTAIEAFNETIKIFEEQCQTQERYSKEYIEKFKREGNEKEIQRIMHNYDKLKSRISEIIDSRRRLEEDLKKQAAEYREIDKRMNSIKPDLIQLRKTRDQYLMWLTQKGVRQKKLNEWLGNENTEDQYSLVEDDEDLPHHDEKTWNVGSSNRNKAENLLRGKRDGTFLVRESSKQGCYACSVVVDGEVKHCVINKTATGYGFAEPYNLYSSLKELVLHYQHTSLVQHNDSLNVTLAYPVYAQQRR

Regarding `NC(=O)c1ccc(Oc2cc(=O)[nH]c3ccccc23)cc1`, the IC50 (commonly the concentration that inhibits the measured activity by half) in assay [1] (Homo sapiens, 72 h) is 23 µM; at human TOR (FLAG-TOR), 1.83 µM; at PI3Kα, more than 10 µM; in assay [2] (Homo sapiens, LNCaP, 72 h), more than 60 µM.
For `O=c1cc(Oc2cccc(NCc3cccs3)c2)c2ccccc2[nH]1` the same measures were more than 60 µM, 0.08 µM, more than 10 µM and 5.4 µM.
Consider `O=C(NCCO)Nc1ccc(-c2cccc(Oc3cc(=O)[nH]c4ccccc34)c2)cc1`, for which the IC50 in assay [1] (Homo sapiens, 72 h) was more than 60 µM; at human TOR (FLAG-TOR) it was 0.25 µM; on PI3Kα, 8.48 µM; in assay [2] (Homo sapiens, LNCaP, 72 h), 60 µM.
Regarding `O=c1cc(Oc2cccc(NCc3cnc4[nH]ccc4c3)c2)c2ccccc2[nH]1`, the IC50 was 13 µM in assay [1] (Homo sapiens, 72 h); 0.12 µM at human TOR (FLAG-TOR); 3.42 µM on PI3Kα; 4.9 µM in assay [2] (Homo sapiens, LNCaP, 72 h).
Regarding `O=C(Cc1cccs1)Nc1ccc2[nH]c(=O)cc(Oc3ccccc3)c2c1`, the IC50 in assay [1] (Homo sapiens, 72 h) worked out at 35 µM; on human TOR (FLAG-TOR), 14.5 µM; on PI3Kα, 0.383 µM; in assay [2] (Homo sapiens, LNCaP, 72 h), 22 µM.
Turning to `O=c1cc(Oc2cccc(NCc3ccncc3)c2)c2ccccc2[nH]1`, the IC50 in assay [1] (Homo sapiens, 72 h) is 10 µM; on human TOR (FLAG-TOR) it was 0.15 µM; at PI3Kα it was more than 10 µM; in assay [2] (Homo sapiens, LNCaP, 72 h), 5 µM.
Take `COc1cccc(Oc2cc(=O)[nH]c3ccccc23)c1`: the IC50 was 60 µM in assay [1] (Homo sapiens, 72 h); 0.3 µM on human TOR (FLAG-TOR); more than 10 µM at PI3Kα; 9.3 µM in assay [2] (Homo sapiens, LNCaP, 72 h).
For `CN(C)c1ncccc1CNc1cccc(Oc2cc(=O)[nH]c3ccccc23)c1` the same measures were 12 µM, 0.31 µM, more than 10 µM and 5 µM.
Take `CN1CCN(c2cc(-c3ccc(Oc4cc(=O)[nH]c5ccccc45)cc3)ccn2)CC1`: the IC50 in assay [1] (Homo sapiens, 72 h) came out at 1.2 µM; at human TOR (FLAG-TOR), 0.56 µM; against PI3Kα, 9 µM; in assay [2] (Homo sapiens, LNCaP, 72 h), 0.8 µM.
Turning to `CC(Nc1cccc(Oc2cc(=O)[nH]c3ccccc23)c1)c1ccncc1` (stereo not drawn), the IC50 in assay [1] (Homo sapiens, 72 h) was 11 µM; on human TOR (FLAG-TOR), 0.14 µM; against PI3Kα it was 7.52 µM; in assay [2] (Homo sapiens, LNCaP, 72 h) it was 3.1 µM.
In the same order, the values of `O=c1cc(Oc2ccc(C3=NCCCN3)cc2)c2ccccc2[nH]1` are 60 µM, 0.57 µM, more than 10 µM and more than 60 µM.
As to `O=c1cc(Oc2ccccc2)c2cc(N3CCOCC3)ccc2[nH]1`, the IC50 in assay [1] (Homo sapiens, 72 h) stood at 27 µM; on human TOR (FLAG-TOR), 16.5 µM; at PI3Kα it was 1.17 µM; in assay [2] (Homo sapiens, LNCaP, 72 h) it was 7.5 µM.
In the same order, the values of `Nc1ccc(-c2cccc(Oc3cc(=O)[nH]c4ccccc34)c2)cc1` are 30 µM, 0.29 µM, 9.52 µM and 11 µM.
On to `O=c1cc(Oc2cccc(-c3cccs3)c2)c2ccccc2[nH]1`, for which the IC50 was 3.8 µM in assay [1] (Homo sapiens, 72 h); more than 20 µM on human TOR (FLAG-TOR); 2.69 µM against PI3Kα; more than 60 µM in assay [2] (Homo sapiens, LNCaP, 72 h).
On to `CC(=O)Nc1ccc(-c2cccc(Oc3cc(=O)[nH]c4ccccc34)c2)cc1`, for which the IC50 in assay [1] (Homo sapiens, 72 h) was 11 µM; at human TOR (FLAG-TOR), 0.22 µM; on PI3Kα, 3.67 µM; in assay [2] (Homo sapiens, LNCaP, 72 h), 15 µM.
For `O=c1cc(Oc2cccc(Br)c2)c2ccccc2[nH]1` the same measures were more than 60 µM, 0.11 µM, more than 10 µM and 60 µM.
In the same order, the values of `CN1CCC(Nc2cccc(Oc3cc(=O)[nH]c4ccccc34)c2)CC1` are 12 µM, 0.32 µM, more than 10 µM and 6 µM.
With `CN1CCN(c2ccc(Oc3cc(=O)[nH]c4ccccc34)cc2)CC1`, the IC50 in assay [1] (Homo sapiens, 72 h) is 40 µM; on human TOR (FLAG-TOR), 7 µM; against PI3Kα, more than 10 µM; in assay [2] (Homo sapiens, LNCaP, 72 h), 17 µM.
For the compound `O=c1cc(Oc2cccc(NCc3cccnc3Cl)c2)c2ccccc2[nH]1` [drawing 217], the IC50 was 10 µM in assay [1], 0.15 µM at human TOR (FLAG-TOR), more than 10 µM at PI3Kα and 4.2 µM in assay [2].
Take `Cn1cc(-c2ccc3[nH]c(=O)cc(Oc4ccccc4)c3c2)cn1`: the IC50 in assay [1] (Homo sapiens, 72 h) is more than 60 µM; on human TOR (FLAG-TOR) it was more than 20 µM; against PI3Kα, more than 10 µM; in assay [2] (Homo sapiens, LNCaP, 72 h), more than 60 µM.
`O=c1cc(Oc2cccc(-c3ccco3)c2)c2ccccc2[nH]1`: the IC50 in assay [1] (Homo sapiens, 72 h) was 0.7 µM; on human TOR (FLAG-TOR) it was 0.4 µM; at PI3Kα, more than 10 µM; in assay [2] (Homo sapiens, LNCaP, 72 h), more than 60 µM.
As for `CCN(CC)CCOc1cccc(Oc2cc(=O)[nH]c3ccccc23)c1`, the IC50 in assay [1] (Homo sapiens, 72 h) is 28 µM; at human TOR (FLAG-TOR) it was 0.32 µM; against PI3Kα, more than 10 µM; in assay [2] (Homo sapiens, LNCaP, 72 h), 7 µM.
With `O=c1cc(Oc2cccc(-c3ccc(N4CCOCC4)nc3)c2)c2ccccc2[nH]1`, the IC50 in assay [1] (Homo sapiens, 72 h) is more than 60 µM; on human TOR (FLAG-TOR) it was 0.2 µM; at PI3Kα it was more than 10 µM; in assay [2] (Homo sapiens, LNCaP, 72 h), 12 µM.
As to `Nc1ccc(CNc2cccc(Oc3cc(=O)[nH]c4ccccc34)c2)cn1`, the IC50 amounted to 8 µM in assay [1] (Homo sapiens, 72 h); 0.11 µM at human TOR (FLAG-TOR); 7.16 µM against PI3Kα; 4 µM in assay [2] (Homo sapiens, LNCaP, 72 h).
Consider `O=c1cc(Oc2cccc(-c3cccc(CN4CCOCC4)c3)c2)c2ccccc2[nH]1`, for which the IC50 in assay [1] (Homo sapiens, 72 h) was determined as 30 µM; on human TOR (FLAG-TOR), 0.6 µM; against PI3Kα it was 6.83 µM; in assay [2] (Homo sapiens, LNCaP, 72 h), 9.5 µM.
As to `CC(C)(C)OC(=O)N1CCN(c2ccc(-c3cccc(Oc4cc(=O)[nH]c5ccccc45)c3)cc2)CC1`, the 50% inhibitory concentration (IC50) in assay [1] (Homo sapiens, 72 h) worked out at 44 µM; on human TOR (FLAG-TOR), 5.85 µM; on PI3Kα it was 9.89 µM; in assay [2] (Homo sapiens, LNCaP, 72 h), 60 µM.
For `O=c1cc(Oc2ccc(-c3ccsc3)cc2)c2ccccc2[nH]1`, the IC50 was more than 60 µM in assay [1] (Homo sapiens, 72 h); more than 20 µM at human TOR (FLAG-TOR); 2.51 µM against PI3Kα; more than 60 µM in assay [2] (Homo sapiens, LNCaP, 72 h).
For the compound `CN(C)c1ccc(CNc2cccc(Oc3cc(=O)[nH]c4ccccc34)c2)cn1`, the IC50 in assay [1] (Homo sapiens, 72 h) is more than 60 µM; on human TOR (FLAG-TOR), 0.16 µM; on PI3Kα, 4.55 µM; in assay [2] (Homo sapiens, LNCaP, 72 h), more than 60 µM.
For `O=c1cc(Oc2ccccc2)c2cc(Cl)ccc2[nH]1`, the IC50 in assay [1] (Homo sapiens, 72 h) is more than 60 µM; at human TOR (FLAG-TOR), 6.75 µM; at PI3Kα, 5.14 µM; in assay [2] (Homo sapiens, LNCaP, 72 h) it was 13 µM.
For `CN1CCN(c2ccc(-c3cccc(Oc4cc(=O)[nH]c5ccccc45)c3)cn2)CC1`, the IC50 was 9 µM in assay [1] (Homo sapiens, 72 h); 0.21 µM at human TOR (FLAG-TOR); more than 10 µM against PI3Kα; 4 µM in assay [2] (Homo sapiens, LNCaP, 72 h).
In the same order, the values of `O=c1cc(Oc2cccc(NCc3ccc(-c4cccc(CO)n4)cc3)c2)c2ccccc2[nH]1` are 10 µM, 0.09 µM, 3.92 µM and 4.3 µM.
On to `COc1ccc(Oc2cc(=O)[nH]c3ccccc23)cc1`, for which the IC50 in assay [1] (Homo sapiens, 72 h) is more than 60 µM; on human TOR (FLAG-TOR) it was 0.54 µM; against PI3Kα, 11 µM; in assay [2] (Homo sapiens, LNCaP, 72 h) it was more than 60 µM.
For `CN(C)CCc1ccc(Oc2cc(=O)[nH]c3ccccc23)cc1`, the IC50 is 23 µM in assay [1] (Homo sapiens, 72 h); 3.23 µM on human TOR (FLAG-TOR); more than 10 µM against PI3Kα; 8 µM in assay [2] (Homo sapiens, LNCaP, 72 h).
